Measured values published in US12344610B2, “APOL1 inhibitors and methods of use” (Maze Therapeutics, Inc., priority 2022, dated 2025).

Tested on: HEK293 clonal cell line overexpressing APOL1 G1
Assay: APOL1 G1 HEK293 cell rescue assay (Example B3)
Assay type: cell-based
Conditions: Homo sapiens, HEK293, HEK293 clonal line overexpressing APOL1 G1; geometric mean of at least 2 runs; † = single run; ¥ = concentration at 50% rescue estimated (no sigmoidal curve)
Summary of the method: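 HEK293 clonal line overexpressing APOL1 G1; EC50 is half-maximal reversal of APOL1-induced cell death. Values are the geometric mean of ≥2 runs on separate days, each run the average of duplicate wells. Where no sigmoidal curve could be fitted, the concentration giving 50% rescue was estimated.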

SMILES: CS(=O)(=O)c1ccc(OCCN2CCC3(CC2)C(=O)Nc2ccc(Cl)cc23)cc1C(O)CO (centres unmarked) [Compound 216, 5-chloro-1′-{2-[3-(1,2-dihydroxyethyl)-4-methanesulfonylphenoxy]ethyl}-1,2-dihydrospiro[indole-3,4′-piperidin]-2-one]
- EC50: ~1000 nM

SMILES: O=C1CCc2cc(OCCN3CCC4(CC3)C(=O)Nc3ccc(Cl)cc34)ccc2N1[C@H]1C[C@H](O)C1 [Compound 224, 5-chloro-1′-[2-({2-oxo-1-[(trans)-3-hydroxycyclobutyl]-1,2,3,4-tetrahydroquinolin-6-yl}oxy)ethyl]-1,2-dihydrospiro[indole-3,4′-piperidin]-2-one]
- EC50: 155 nM

SMILES: O=C1Nc2ccc(Cl)cc2C12CCN(CCOc1ccc(S(=O)(=O)C3(CO)CC3)cc1)CC2 [Compound 225, 5-chloro-1′-[2-(4-{[1-(hydroxymethyl)cyclopropyl]sulfonyl}phenoxy)ethyl]-1,2-dihydrospiro[indole-3,4′-piperidin]-2-one]
- EC50: 51.7 nM

SMILES: CNC(=O)C1(S(=O)(=O)c2ccc(OCCN3CCC4(CC3)C(=O)Nc3ccc(Cl)cc34)cc2)CC1 [Compound 226, 1-[4-(2-{5-chloro-2-oxo-1,2-dihydrospiro[indole-3,4′-piperidin]-1′-yl}ethoxy)benzenesulfonyl]-N-methylcyclopropane-1-carboxamide]
- EC50: 138 nM

SMILES: CN(C)C(=O)C1(S(=O)(=O)c2ccc(OCCN3CCC4(CC3)C(=O)Nc3ccc(Cl)cc34)cc2)CC1 [Compound 227, 1-[4-(2-{5-chloro-2-oxo-1,2-dihydrospiro[indole-3,4′-piperidin]-1′-yl}ethoxy)benzenesulfonyl]-N,N-dimethylcyclopropane-1-carboxamide]
- EC50: 210 nM

SMILES: O=C1Nc2ccc(Cl)cc2C12CCN(CCOc1ccc(S(=O)(=O)C3(C(=O)N4CCC4)CC3)cc1)CC2 [Compound 228, 1′-[2-(4-{[1-(azetidine-1-carbonyl)cyclopropyl]sulfonyl}phenoxy)ethyl]-5-chloro-1,2-dihydrospiro[indole-3,4′-piperidin]-2-one]
- EC50: 426 nM

SMILES: CNC(=O)c1ccc(OCCN2CCC3(CC2)C(=O)Nc2ccc(Cl)cc23)cc1F [Compound 229, 4-(2-{5-chloro-2-oxo-1,2-dihydrospiro[indole-3,4′-piperidin]-1′-yl}ethoxy)-2-fluoro-N-methylbenzamide]
- EC50: 396 nM

SMILES: CN(C)C(=O)c1ccc(OCCN2CCC3(CC2)C(=O)Nc2ccc(Cl)cc23)cc1F [Compound 230, 4-(2-{5-chloro-2-oxo-1,2-dihydrospiro[indole-3,4′-piperidin]-1′-yl}ethoxy)-2-fluoro-N,N-dimethylbenzamide]
- EC50: 325 nM

SMILES: O=C(c1ccc(OCCN2CCC3(CC2)C(=O)Nc2ccc(Cl)cc23)cc1F)N1CCOCC1 [Compound 231, 5-chloro-1′-{2-[3-fluoro-4-(morpholine-4-carbonyl)phenoxy]ethyl}-1,2-dihydrospiro[indole-3,4′-piperidin]-2-one]
- EC50: 169 nM

SMILES: O=C(c1ccc(OCCN2CCC3(CC2)C(=O)Nc2ccc(Cl)cc23)cc1F)N1CCC1 [Compound 234, 1′-{2-[4-(azetidine-1-carbonyl)-3-fluorophenoxy]ethyl}-5-chloro-1,2-dihydrospiro[indole-3,4′-piperidin]-2-one]
- EC50: 233 nM

SMILES: O=C(c1ccc(OCCN2CCC3(CC2)C(=O)Nc2ccc(Cl)cc23)cc1F)N1CC(O)C1 [Compound 235, 5-chloro-1′-{2-[3-fluoro-4-(3-hydroxyazetidine-1-carbonyl)phenoxy]ethyl}-1,2-dihydrospiro[indole-3,4′-piperidin]-2-one]
- EC50: 268 nM

SMILES: NC1CN(C(=O)c2ccc(OCCN3CCC4(CC3)C(=O)Nc3ccc(Cl)cc34)cc2F)C1 [Compound 236, 1′-{2-[4-(3-aminoazetidine-1-carbonyl)-3-fluorophenoxy]ethyl}-5-chloro-1,2-dihydrospiro[indole-3,4′-piperidin]-2-one]
- EC50: 134 nM

SMILES: CS(=O)(=O)NC1CN(C(=O)c2ccc(OCCN3CCC4(CC3)C(=O)Nc3ccc(Cl)cc34)cc2F)C1 [Compound 237, N-{1-[4-(2-{5-chloro-2-oxo-1,2-dihydrospiro[indole-3,4′-piperidin]-1′-yl}ethoxy)-2-fluorobenzoyl]azetidin-3-yl} methanesulfonamide]
- EC50: > 3250 nM

SMILES: N#Cc1ccc2c(c1)C1(CCN(CCOc3ccc(C(N)=O)c(F)c3)CC1)C(=O)N2 [Compound 238, 4-(2-{5-cyano-2-oxo-1,2-dihydrospiro[indole-3,4′-piperidin]-1′-yl}ethoxy)-2-fluorobenzamide]
- EC50: 244 nM

SMILES: Cc1n[nH]cc1-c1ccc(OCCN2CCC3(CC2)C(=O)Nc2ccc(Cl)cc23)cc1 [Compound 244, 5-chloro-1′-{2-[4-(5-methyl-1H-pyrazol-4-yl)phenoxy]ethyl}-1,2-dihydrospiro[indole-3,4′-piperidin]-2-one]
- EC50: 189 nM

SMILES: CNC(=O)N1CCc2cc(OCCN3CCC4(CC3)C(=O)Nc3ccc(Cl)cc34)ccc2C1 [Compound 245, 6-(2-{5-chloro-2-oxo-1,2-dihydrospiro[indole-3,4′-piperidin]-1′-yl}ethoxy)-N-methyl-1,2,3,4-tetrahydroisoquinoline-2-carboxamide]
- EC50: 301 nM

SMILES: Cn1c(=O)[nH]c2cc(OCCN3CCC4(CC3)C(=O)Nc3ccc(Cl)cc34)cnc21 [Compound 247, 5-chloro-1′-[2-({3-methyl-2-oxo-1H,2H,3H-imidazo[4,5-b]pyridin-6-yl}oxy)ethyl]-1,2-dihydrospiro[indole-3,4′-piperidin]-2-one]
- EC50: 270 nM

SMILES: O=C1Nc2ccc(Cl)cc2C12CCN(CCOc1ccc(S(=O)(=O)C3(CO)CC3)nc1)CC2 [Compound 248, 5-chloro-1′-{2-[(6-{[1-(hydroxymethyl)cyclopropyl]sulfonyl}pyridin-3-yl)oxy]ethyl}-1,2-dihydrospiro[indole-3,4′-piperidin]-2-one]
- EC50: 219 nM

SMILES: NC(=O)c1ccc(OCCN2CCC3(CC2)C(=O)Nc2ccc(Cl)cc23)cc1C(F)F [Compound 249, 4-(2-{5-chloro-2-oxo-1,2-dihydrospiro[indole-3,4′-piperidin]-1′-yl}ethoxy)-2-(difluoromethyl)benzamide]
- EC50: 70.6 nM

SMILES: N#Cc1ccc2c(c1)C1(CCN(CCOc3ccc(C(N)=O)c(C(F)F)c3)CC1)C(=O)N2 [Compound 250, 4-(2-{5-cyano-2-oxo-1,2-dihydrospiro[indole-3,4′-piperidin]-1′-yl}ethoxy)-2-(difluoromethyl)benzamide]
- EC50: 192 nM

SMILES: CN1C(=O)C2(CCN(CCOc3ccc(C4(S(C)(=O)=O)COC4)cc3)CC2)c2cc(C#N)ccc21 [Compound 251, 1′-{2-[4-(3-methanesulfonyloxetan-3-yl)phenoxy]ethyl}-1-methyl-2-oxo-1,2-dihydrospiro[indole-3,4′-piperidine]-5-carbonitrile]
- EC50: ~323 nM

SMILES: CN(C)C(=O)C1(c2ccc(OCCN3CCC4(CC3)C(=O)Nc3ccc(C#N)cc34)cc2)COC1 [Compound 254, 3-[4-(2-{5-cyano-2-oxo-1,2-dihydrospiro[indole-3,4′-piperidin]-1′-yl}ethoxy)phenyl]-N,N-dimethyloxetane-3-carboxamide]
- EC50: 2040 nM

SMILES: CNC(=O)C1(c2ccc(OCCN3CCC4(CC3)C(=O)Nc3ccc(C#N)cc34)cc2)COC1 [Compound 255, 3-[4-(2-{5-cyano-2-oxo-1,2-dihydrospiro[indole-3,4′-piperidin]-1′-yl}ethoxy)phenyl]-N-methyloxetane-3-carboxamide]
- EC50: ~2900 nM
